One test concerns the target JAK2 kinase domain (JH1) (Homo sapiens (Human), UniProt O60674). The experiment in a line: JAK2 Radioactive Kinase Assay. Format: biochemical. Particulars: for inhibition at 10 µM: read-out: JAK2 JH1% Inhibition @ 10 μM. In a few lines: (§1)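 Values are single-concentration percent inhibition figures. They were obtained with 10 μM compound in a radioactivity-based kinase assay run separately on each enzyme.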

Test [1] addresses human TYK2 (JH2domain-pseudokinase) (Homo sapiens (Human), UniProt P29597). The experiment in a line: TYK2 JH2 Domain Binding Assay (KINOMEscan). In a few lines: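 The construct was human TYK2 G556–D888 fused to the NFkB DNA-binding domain and expressed in HEK293 cells; unpurified extract was incubated with compound and liganded beads for 1 hour at room temperature.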
The next test addresses Tyk2 kinase domain (DH1) (Homo sapiens (Human), UniProt P29597). The experiment in a line: Tyk2 Radioactive Kinase Assay. Format: biochemical. To be noted: for inhibition at 10 µM: read-out: Tyk2 JH1% Inhibition @ 10 μM. A digest of the protocol:
as §1

Where two headings read alike, the source gives them in different places.

JAK2 kinase domain (JH1), sequence (O60674 849-1124): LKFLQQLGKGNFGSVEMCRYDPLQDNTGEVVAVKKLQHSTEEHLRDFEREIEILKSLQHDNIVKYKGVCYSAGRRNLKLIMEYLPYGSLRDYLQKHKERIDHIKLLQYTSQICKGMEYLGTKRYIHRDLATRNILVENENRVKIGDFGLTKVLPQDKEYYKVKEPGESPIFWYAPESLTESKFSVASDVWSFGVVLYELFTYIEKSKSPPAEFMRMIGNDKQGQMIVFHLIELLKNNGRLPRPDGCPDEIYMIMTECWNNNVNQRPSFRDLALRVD
Tyk2 kinase domain (DH1), sequence (P29597 897-1176): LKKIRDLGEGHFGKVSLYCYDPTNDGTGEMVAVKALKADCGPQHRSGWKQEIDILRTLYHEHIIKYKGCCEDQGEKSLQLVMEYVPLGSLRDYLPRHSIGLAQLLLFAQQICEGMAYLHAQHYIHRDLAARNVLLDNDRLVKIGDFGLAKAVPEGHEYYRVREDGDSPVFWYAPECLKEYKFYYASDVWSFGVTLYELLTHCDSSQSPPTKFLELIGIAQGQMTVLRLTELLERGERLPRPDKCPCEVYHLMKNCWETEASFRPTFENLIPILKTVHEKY
human TYK2 (JH2domain-pseudokinase), sequence (P29597 556-888): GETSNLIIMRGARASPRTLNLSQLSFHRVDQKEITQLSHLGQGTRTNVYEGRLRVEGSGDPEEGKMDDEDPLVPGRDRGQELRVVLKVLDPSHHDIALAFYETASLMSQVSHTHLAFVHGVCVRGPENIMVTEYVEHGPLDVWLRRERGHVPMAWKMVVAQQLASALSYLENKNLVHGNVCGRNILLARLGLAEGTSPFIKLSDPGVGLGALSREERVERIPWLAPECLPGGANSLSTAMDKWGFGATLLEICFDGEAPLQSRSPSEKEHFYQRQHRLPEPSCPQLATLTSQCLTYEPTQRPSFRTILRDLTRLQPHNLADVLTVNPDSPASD

One may read the inhibition as the drop in the measured response relative to a control, in per cent. Usually Kd stands for the free concentration of one partner at which half of the binding sites on the other are occupied at equilibrium, for simple one-to-one binding. Take `CNc1cc(Nc2cccn([C@H]3CC[C@@H]3O)c2=O)nc2c(C(=O)NC3CC3)cnn12` [I-801]: the inhibition at 10 µM at JAK2 kinase domain (JH1) (compound at 10 μM, ATP 10 μM) is less than 50%; on Tyk2 kinase domain (DH1) (compound at 10 μM, ATP 10 μM), less than 50%. Further, in test [1], the Kd was in the range of 0.2 to 1 nM.
Consider `CNc1cc(Nc2cccn([C@H]3CCCOC3)c2=O)nc2c(C(=O)N[C@@H]3CC[C@@H]3O)cnn12` [I-804], for which, on JAK2 kinase domain (JH1) (compound at 10 μM, ATP 10 μM), the “JAK2 JH1% Inhibition @ 10 μM” value is given as “A (percent inhibition at 10 μM lower than 50)”. The molecule further had a Kd in test [1] of 0.2 to 1 nM. For the same molecule, the “Tyk2 JH1% Inhibition @ 10 μM” value on Tyk2 kinase domain (DH1) (compound at 10 μM, ATP 10 μM) is “A (percent inhibition at 10 μM lower than 50)”.
For `CNc1cc(Nc2cccn(-c3ccccn3)c2=O)nc2c(C(=O)N[C@@H]3CC[C@@H]3O)cnn12` [I-806], at JAK2 kinase domain (JH1) (compound at 10 μM, ATP 10 μM), the “JAK2 JH1% Inhibition @ 10 μM” value was “A (percent inhibition at 10 μM lower than 50)”. The Kd in test [1] was 0.2 to 1 nM. Further, the “Tyk2 JH1% Inhibition @ 10 μM” value on Tyk2 kinase domain (DH1) (compound at 10 μM, ATP 10 μM) is “A (percent inhibition at 10 μM lower than 50)”.
With `CNc1cc(-c2cn(CCN3CCOCC3)c3ncccc23)nc2c(C(=O)NCC3(CO)CC3)cnn12` [I-807, N-((1-(hydroxymethyl)cyclopropyl)methyl)-7-(methylamino)-5-(1-(2-morpholinoethyl)-1H-pyrrolo[2,3-b]pyridin-3-yl)pyrazolo[1,5-a]pyrimidine-3-carboxamide], the inhibition at 10 µM was less than 50% on JAK2 kinase domain (JH1) (compound at 10 μM, ATP 10 μM) and less than 50% at Tyk2 kinase domain (DH1) (compound at 10 μM, ATP 10 μM). Besides, the Kd in test [1] lay in the range of 0.2 to 1 nM.
As to `CNc1cc(Nc2cccn(-c3cnn(C)c3F)c2=O)nc2c(C(=O)NC3CC3)cnn12` [I-808], the inhibition at 10 µM is less than 50% at JAK2 kinase domain (JH1) (10 μM compound, 10 μM ATP) and less than 50% at Tyk2 kinase domain (DH1) (10 μM compound, 10 μM ATP). The molecule further gave a Kd in test [1] of less than 0.2 nM.
Consider `CNc1cc(Nc2cccn(-c3cnco3)c2=O)nc2c(C(=O)N[C@H]3CC[C@H]3O)cnn12` [I-809], for which the “JAK2 JH1% Inhibition @ 10 μM” value at JAK2 kinase domain (JH1) (10 μM compound, 10 μM ATP) is recorded as “A (percent inhibition at 10 μM lower than 50)”. The molecule also had a Kd in test [1] of 0.2 to 1 nM. At Tyk2 kinase domain (DH1) (10 μM compound, 10 μM ATP), the “Tyk2 JH1% Inhibition @ 10 μM” value is “A (percent inhibition at 10 μM lower than 50)”.
With `CNc1cc(Nc2cccn([C@H]3[C@@H]4COC[C@@H]43)c2=O)nc2c(C(=O)NC3CC3)cnn12` [I-810], the inhibition at 10 µM on JAK2 kinase domain (JH1) (10 μM compound, 10 μM ATP) was less than 50%; at Tyk2 kinase domain (DH1) (10 μM compound, 10 μM ATP), less than 50%. The Kd in test [1] was less than 0.2 nM.
In the case of `CNc1cc(Nc2cccn(-c3cccnc3C)c2=O)nc2c(C(=O)NC3CC3)cnn12` [I-812], the inhibition at 10 µM on JAK2 kinase domain (JH1) (10 μM compound, 10 μM ATP) was less than 50%; on Tyk2 kinase domain (DH1) (10 μM compound, 10 μM ATP), less than 50%. The dissociation constant Kd in test [1] was in the range of 1 to 10 nM.
Turning to `CNc1cc(Nc2cccn(-c3cccnc3C)c2=O)nc2c(C(=O)N[C@@H]3C[C@@H]3F)cnn12` [I-813], the inhibition at 10 µM was less than 50% on JAK2 kinase domain (JH1) (10 μM compound, 10 μM ATP) and less than 50% at Tyk2 kinase domain (DH1) (10 μM compound, 10 μM ATP). Also, the Kd in test [1] lay in the range of 0.2 to 1 nM.
With `CNc1cc(-c2cn(CCN3CCOCC3)c3ncccc23)nc2c(C(=O)NCC(C)(C)CO)cnn12` [I-818, N-(3-hydroxy-2,2-dimethylpropyl)-7-(methylamino)-5-(1-(2-morpholinoethyl)-1H-pyrrolo[2,3-b]pyridin-3-yl)pyrazolo[1,5-a]pyrimidine-3-carboxamide], the inhibition at 10 µM at JAK2 kinase domain (JH1) (10 μM compound, 10 μM ATP) was less than 50%; at Tyk2 kinase domain (DH1) (10 μM compound, 10 μM ATP), less than 50%. Besides, the Kd in test [1] lay in the range of 0.2 to 1 nM.
With `CNc1cc(Nc2cccn([C@@H]3CCC[C@@H](O)C3)c2=O)nc2c(C(=O)NC3CC3)cnn12` [I-822], the inhibition at 10 µM was less than 50% at JAK2 kinase domain (JH1) (10 μM compound, 10 μM ATP) and less than 50% on Tyk2 kinase domain (DH1) (10 μM compound, 10 μM ATP). The molecule further came in with a Kd in test [1] of less than 0.2 nM.
`CNc1cc(Nc2cccn([C@H]3CCN(C)CC3(F)F)c2=O)nc2c(C(=O)NC3CC3)cnn12` [I-823]: the inhibition at 10 µM on JAK2 kinase domain (JH1) (10 μM compound, 10 μM ATP) is less than 50%; at Tyk2 kinase domain (DH1) (10 μM compound, 10 μM ATP), less than 50%. This molecule also displayed a Kd in test [1] of 0.2 to 1 nM.
Take `CNc1cc(Nc2cccn([C@@H]3CCN(C)CC3(F)F)c2=O)nc2c(C(=O)NC3CC3)cnn12` [I-824]: the inhibition at 10 µM on JAK2 kinase domain (JH1) (10 μM compound, 10 μM ATP) was less than 50%; on Tyk2 kinase domain (DH1) (10 μM compound, 10 μM ATP) it was less than 50%. This molecule registered an equilibrium dissociation constant (Kd) in test [1] of 0.2 to 1 nM.
In the case of `CNc1cc(Nc2cccn([C@H]3CC[C@H](OC)CC3)c2=O)nc2c(C(=O)NC[C@@H](C)CO)cnn12` [I-830], the inhibition at 10 µM on JAK2 kinase domain (JH1) (10 μM compound, 10 μM ATP) is less than 50%; at Tyk2 kinase domain (DH1) (10 μM compound, 10 μM ATP), less than 50%. Also, the Kd in test [1] was less than 0.2 nM.
For `CNc1cc(Nc2cccn([C@H]3CC[C@H](OC)CC3)c2=O)nc2c(C(=O)N[C@@H]3COC[C@@H]3O)cnn12` [I-831], the inhibition at 10 µM at JAK2 kinase domain (JH1) (10 μM compound, 10 μM ATP) is less than 50%; on Tyk2 kinase domain (DH1) (10 μM compound, 10 μM ATP), less than 50%. This molecule also yielded a dissociation constant Kd in test [1] of less than 0.2 nM.
Take `CNc1cc(Nc2cccn([C@H]3CC[C@H](OC)CC3)c2=O)nc2c(C(=O)N[C@H]3COC[C@H]3O)cnn12` [I-832]: the inhibition at 10 µM was less than 50% at JAK2 kinase domain (JH1) (10 μM compound, 10 μM ATP) and less than 50% on Tyk2 kinase domain (DH1) (10 μM compound, 10 μM ATP). The molecule also returned an equilibrium dissociation constant (Kd) in test [1] of 1 to 10 nM.
In the case of `CNc1cc(Nc2cccc3ocnc23)nc2c(C(=O)N[C@@H]3COC[C@@H]3O)cnn12` [I-833], the inhibition at 10 µM is less than 50% on JAK2 kinase domain (JH1) (10 μM compound, 10 μM ATP) and less than 50% at Tyk2 kinase domain (DH1) (10 μM compound, 10 μM ATP). The same molecule returned a dissociation constant (Kd) in test [1] of more than 10 nM.
As for `CNc1cc(-c2cn(CCN3CCOCC3)c3ncccc23)nc2c(C(=O)N[C@H]3CC[C@@H]3O)cnn12` [I-836], the inhibition at 10 µM at JAK2 kinase domain (JH1) (10 μM compound, 10 μM ATP) is less than 50%; on Tyk2 kinase domain (DH1) (10 μM compound, 10 μM ATP) it was less than 50%. Moreover, the dissociation constant (Kd) in test [1] was in the range of 0.2 to 1 nM.
Regarding `CNc1cc(-c2cn(CCN3CCCCC3)c3ncccc23)nc2c(C(=O)N[C@H]3CC[C@@H]3O)cnn12` [I-838], the inhibition at 10 µM at JAK2 kinase domain (JH1) (10 μM compound, 10 μM ATP) is less than 50%; at Tyk2 kinase domain (DH1) (10 μM compound, 10 μM ATP), less than 50%. The same molecule gave an equilibrium dissociation constant (Kd) in test [1] of less than 0.2 nM.
With `CNc1cc(-c2cn(C(C)C)c3ncccc23)nc2c(C(=O)N[C@H]3COC[C@H]3O)cnn12` [I-841, N-((3S,4S)-4-hydroxytetrahydrofuran-3-yl)-5-(1-isopropyl-1H-pyrrolo[2,3-b]pyridin-3-yl)-7-(methylamino)pyrazolo[1,5-a]pyrimidine-3-carboxamide], the inhibition at 10 µM was less than 50% on JAK2 kinase domain (JH1) (10 μM compound, 10 μM ATP) and less than 50% at Tyk2 kinase domain (DH1) (10 μM compound, 10 μM ATP). This molecule showed an equilibrium dissociation constant (Kd) in test [1] of 1 to 10 nM.
With `CNc1cc(Nc2cccn(C3CCN(CCF)CC3)c2=O)nc2c(C(=O)N[C@H]3CC[C@H]3O)cnn12` [I-844], the inhibition at 10 µM is less than 50% at JAK2 kinase domain (JH1) (10 μM compound, 10 μM ATP) and less than 50% on Tyk2 kinase domain (DH1) (10 μM compound, 10 μM ATP). In addition, in test [1], the dissociation constant (Kd) was less than 0.2 nM.
On to `CNc1cc(Nc2cccn(C3CCN(CCF)CC3)c2=O)nc2c(C(=O)N[C@@H]3CC[C@H]3O)cnn12` [I-845], for which the inhibition at 10 µM was less than 50% at JAK2 kinase domain (JH1) (10 μM compound, 10 μM ATP) and less than 50% on Tyk2 kinase domain (DH1) (10 μM compound, 10 μM ATP). In test [1], this molecule showed an equilibrium dissociation constant (Kd) of less than 0.2 nM.
In the case of `CNc1cc(Nc2cccn(C3CCN(CCF)CC3)c2=O)nc2c(C(=O)NCC3(CO)CC3)cnn12` [I-846], the inhibition at 10 µM is less than 50% on JAK2 kinase domain (JH1) (10 μM compound, 10 μM ATP) and less than 50% at Tyk2 kinase domain (DH1) (10 μM compound, 10 μM ATP). Further, the Kd in test [1] is less than 0.2 nM.
For the molecule `CNc1cc(Nc2cccn(C3CCCN(CCF)C3)c2=O)nc2c(C(=O)NC3CC3)cnn12` (stereo not drawn) [I-848], the inhibition at 10 µM is less than 50% at JAK2 kinase domain (JH1) (10 μM compound, 10 μM ATP) and less than 50% at Tyk2 kinase domain (DH1) (10 μM compound, 10 μM ATP). Besides, the Kd in test [1] is less than 0.2 nM.
`CNc1cc(Nc2cccn(-c3cccnc3C)c2=O)nc2c(C(=O)NCC(C)(C)CO)cnn12` [I-850]: the inhibition at 10 µM at JAK2 kinase domain (JH1) (10 μM compound, 10 μM ATP) was less than 50%; at Tyk2 kinase domain (DH1) (10 μM compound, 10 μM ATP), less than 50%. In test [1], this molecule registered a Kd of 1 to 10 nM.
As to `CNc1cc(Nc2cc(Cl)cn([C@@H]3CCCN(C)C3)c2=O)nc2c(C(=O)N[C@@H]3C[C@@H]3F)cnn12` [I-853], the inhibition at 10 µM on JAK2 kinase domain (JH1) (10 μM compound, 10 μM ATP) was less than 50%; on Tyk2 kinase domain (DH1) (10 μM compound, 10 μM ATP) it was less than 50%. The dissociation constant Kd in test [1] is less than 0.2 nM.

These data come from patent US10508120B2, “TYK2 inhibitors and uses thereof” (Nimbus Lakshmi, Inc., priority 2017, dated 2019).
